Measurements: patent US7388124B2 (priority 2001, dated 2008)
“And” between values parts separate entries of the source, which are not always exact repeats. Equal entries are not always repeated. “Also recorded” adds a separate entry of the source. Where two headings read alike, the source gives them in different places.

What was measured:
Assay type in all cases: in vivo, Sprague Dawley rats
[1] = tested on: rat pain model variants; assay: Mechanical hyperalgesia (pinprick) in rat pain model variants; conditions: for Pinprick # STIMULATIONS POST-ANALGESIC: of 6; for Pinprick # STIMULATIONS POST-ANALGESIC, Total: total of 5 rats, pre total 30
Description: (§1) The methods of preparation and testing were similar for all the variant pain models described in this example. Male Sprague Dawley rats initially weighing between 150 and 175 grams were housed singly. Baseline behaviors to stimulations of the paw on which the procedure was to be performed were recorded over several sessions after accommodation of 3-4 days, and the results were averaged and used as the baseline control data. The pain behaviors studied were static mechanical allodynia (e.g., light touch stimulation with von Frey fibers 4.56, 4.73, 4.93, and/or 5.07), dynamic mechanical allodynia (e.g., stimulation with moving camel hair brush), and/or mechanical hyperalgesia (e.g., pinprick stimulation).
(§2) After the baseline control data was collected, the specified procedure with a gel was performed near the chosen nerve of each variant group (see Tables 2-6 and 8-10), then the rats were tested post procedurally and intermittently for up to 77 days for behavioral changes (see Tables 2-6 and 8-11) and for their responses to substances with analgesic properties (see Tables 7 and 12).
(§3) The stimuli used to elicit pain behavior were the von Frey fibers, camel hair brush and pinprick, with 6 stimulations of each stimulus. Each variant pain model had the same sequence of stimuli with the positive responses averaged and a student T-test performed for the significance of the post procedural responses as compared to the baseline control data (see Tables 2-6 and 11); and for the post-analgesic responses as compared to the pre-analgesic behavioral data (see Tables 7 and 12).
(§4) The tunnels identified by the above studies were then used for the placement of the biocompatible gels by the chosen peripheral nerves. The gelatinous or viscous substances (i.e., the gels) placed by the peripheral nerves or nerve roots contained collagen (e.g., AVITENE® and gelatin) or hydrogels. The “collagen gel” used in the present study was composed of 0.8 grams of collagen as AVITENE® (microfibrillar collagen hemostat flour, Davol Inc., Cranston, R.I. 02920) and 0.7 grams of collagen as gelatin (Knox gelatin, Kraft Foods, Northfield, Ill. 60093) mixed with 14 cc of normal saline until homogenous. Then the collagen mixture was placed in a PYREX® bowl resting in a paper bowl and covered with a ceramic saucer, then heated for 20 seconds at full power in a microwave. The resulting viscous mixture was kept fluid in a warm water bath at 100-110° F., until used for the placement procedure. The wound hydrogels used in the present study were two types: one contains alginate (SAF-Gel® from ConvaTec of E. R. Squibb & Sons, Princeton, N.J.) and the other contains acemannan from Aloe vera L. (Carrasyn®V from Carrington Laboratories, Irving, Tex.). […] Such hydrogels are used in the care of open dermal wounds as well as in first and second degree burns since they provide a closed moist environment for wound healing.
(§5) The rats were anesthesized with 1.5% to 2% isoflurane for the percutaneous kinesthetic placement of the above “gels” by the specified nerves. Using an angled 23 gauge thin wall 1″ needle, approximately 0.1 cc-0.2 cc of gel was placed percutaneously with kinesthetic technique in the anatomically defined fascial tunnels of the chosen peripheral nerves as described below.
(§6) The doses were given intraperitoneally (I.P.) and behavioral stimulus testing began 40-80 minutes after the dose. The student's t-test (p<0.05) was performed for determining the significance of changes in behaviors associated with pain after the analgesic was administered.

[2] = tested on: rat pain model variants; conditions: for von Frey F 4.93 # ST[…]-ANALGESIC: of 6
Description: Male Sprague Dawley rats initially weighing between 150 and 175 grams were housed singly. […] The pain behaviors studied were static mechanical allodynia (e.g., light touch stimulation with von Frey fibers 4.56, 4.73, 4.93, and/or 5.07), dynamic mechanical allodynia (e.g., stimulation with moving camel hair brush), and/or mechanical hyperalgesia (e.g., pinprick stimulation).
as §2
The stimuli used to elicit pain behavior were the von Frey fibers, camel hair brush and pinprick, with 6 stimulations of each stimulus.
as §4, §5, §6

[3] = tested on: rat pain model variants; assay: Dynamic mechanical allodynia (camel hair brush) in rat pain model variants; conditions: Ethosuximide 200 mg/kg (IP); n=12 rats; Pre Avg 4.17; p=1.1E-4
Description: as §1, §2, §3
The tunnels identified by the above studies were then used for the placement of the biocompatible gels by the chosen peripheral nerves. The gelatinous or viscous substances (i.e., the gels) placed by the peripheral nerves or nerve roots contained collagen (e.g., AVITENE® and gelatin) or hydrogels. […]

[4] = tested on: rat pain model variants; assay: Analgesic effect in rat neurogenic pain model variants (overall statement)
Description: as §1, §2, §3, §4, §5, §6

[5] = Ethosuximide 100 mg/kg IP, 1 rat tibial n. with Acemann hydrogel, pre 6
[6] = Ethosuximide 100 mg/kg IP, 1 rat tibial n. with Alginate hydrogel, pre 6

## CCC1(C)CC(=O)NC1=O (stereo not shown) [Ethosuximide, ethosuximide]
[1]; Ethosuximide 100 mg/kg IP, 1 rat saphenous n. with Avitene collagen, pre 6
  Pinprick # STIMULATIONS POST-ANALGESIC: 1
[1]; [5]
  Pinprick # STIMULATIONS POST-ANALGESIC: 0
[1]; [6]
  Pinprick # STIMULATIONS POST-ANALGESIC: 2
[1]; Ethosuximide 100 mg/kg IP, single rats sciatic n. with Alginate hydrogel (two rats, pre 6 and 6)
  Pinprick # STIMULATIONS POST-ANALGESIC: 0 and 1
[1]; Ethosuximide 100 mg/kg IP, pre vs post p=1.6E-4
  Pinprick # STIMULATIONS POST-ANALGESIC, Total: 4
[1]; Ethosuximide 200 mg/kg (IP), n=12 rats, Pre Avg 5.25, p=1.4E-8
  Post Avg, Average Positive stimulations out of 6 total, Stim PP Pin Prick: 1.75
[2]; Ethosuximide 100 mg/kg IP, 1 rat saphenous n. with Avitene collagen, pre 4
  von Frey F 4.93 # ST[…]-ANALGESIC: 0
[2]; [5]
  von Frey F 4.93 # ST[…]-ANALGESIC: 0
[2]; [6]
  von Frey F 4.93 # ST[…]-ANALGESIC: 0
[2]; Ethosuximide 100 mg/kg IP, single rats sciatic n. with Alginate hydrogel (two rats, pre 3 and 6)
  von Frey F 4.93 # ST[…]-ANALGESIC: 0
[2]; Ethosuximide 100 mg/kg IP, total of 5 rats, pre total 25, pre vs post p=1.43E-3
  von Frey F 4.93 # ST[…]-ANALGESIC, Total: 0
[2]; Ethosuximide 200 mg/kg (IP), all rats of Tables 8-10, n=12, Pre Avg 1.83, p=2.9E-3
  Post Avg, Average Positive stimulations out of 6 total, Stim A vF 4.56: 0.5
[2]; Ethosuximide 200 mg/kg (IP), n=12 rats, Pre Avg 2.92, p=8.4E-5
  Post Avg, Average Positive stimulations out of 6 total, Stim B vF 4.93: 0.58
[2]; Ethosuximide 200 mg/kg (IP), n=12 rats, Pre Avg 3.92, p=1.4E-5
  Post Avg, Average Positive stimulations out of 6 total, Stim C vF 5.07: 0.83
[3]
  Post Avg, Average Positive stimulations out of 6 total, Stim S Brush: 1.17
[4]; ethosuximide 200 mg/kg IP, Table 12, within 40-80 minutes
  analgesic effect (significance): significant analgesic effects

## O=C(c1ccccc1)c1ccc2n1CCC2C(=O)O (stereo not shown) [Ketorolac, ketorolac]
[1]; Ketorolac 10% 0.1 cc IP, 1 rat peroneal n. with Avitene collagen, pre 6
  Pinprick # STIMULATIONS POST-ANALGESIC: 6
[1]; Ketorolac 10% 0.1 cc IP, 1 rat tibial n. with Acemannan hydrogel, pre 6
  Pinprick # STIMULATIONS POST-ANALGESIC: 6
[1]; Ketorolac 10% 0.1 cc IP, 1 rat tibial n. with Alginate hydrogel, pre 6
  Pinprick # STIMULATIONS POST-ANALGESIC: 6
[1]; Ketorolac 10% 0.1 cc IP, single rats sciatic n. with Alginate hydrogel (two rats, pre 6 and 6)
  Pinprick # STIMULATIONS POST-ANALGESIC: 5 and 6
[1]; Ketorolac 10% 0.1 cc IP, pre vs post p=3.7E-1
  Pinprick # STIMULATIONS POST-ANALGESIC, Total: 29
[4]; ketorolac 10% 0.1 cc IP, Table 7
  analgesic effect (significance): no significant analgesic effect; also recorded: no significant analgesic properties
